For one data set, the system named is HO-1. The data set can be described thus: HO-1 knock-down in vivo by siRNA, immunoblot of peritoneal cells. The note with it: siRNA 2 mg/kg i.p. 3×, hemin on intervening days. The arrangement: species or system mice. As for the experimental part: (§1) (A,B) Peritoneal cells were isolated from hemin-treated mice that were also injected intraperitoneally on alternate days with saline (−), HO-1 siRNA (construct #1 and #2), or scramble control (Sc) siRNA. The peritoneal cells were then used to examine HO-1 and HO-2 levels by immunoblotting. (C,D) Peritoneal cells were harvested from hemin/construct #2 HO-1 siRNA or hemin/scrambled siRNA injected mice then transferred into naive recipient littermates followed by immediate initiation of CDD feeding. At 2.5 d of CDD feeding, pancreata were collected for histologic scoring. Data for histology score are presented as mean±SD (n=5-6/group), and are 6.4±1.7 (scrambled) and 12.7±4.5 (HO-1 siRNA). (E) Pancreata from panels C,D were double stained using antibodies to F4/80 and HO-1 (scale bar=20 μm).
HO-1 siRNA and hemin pretreated cell transfer. Mice were injected i.p. every other day (3 total injections) with either saline or with two HO-1 siRNA constructs (2 mg/kg body weight), or with a scrambled siRNA sequence. Hemin was injected in the intervening days (an additional 3 injections). After 7 days, peritoneal cells were harvested and analyzed by immunoblotting using antibodies to HO-1/2. […] The siRNAs were synthesized by Dharmacon Research Inc. (Lafayette, Colo.) and tested previously. Zhang, X., Shan, P., Jiang, D., Noble, P. W., Abraham, N. G., Kappas, A., and Lee, P. J. 2004. […]
For orientation: Immunoblotting shows a protein as a band on a membrane.

The next data set has as its system CDD-induced pancreatitis. The data set can be described thus: Transfer of hemin/siRNA pretreated peritoneal cells into CDD-fed mice, histologic scoring. Format: in vivo. As to conditions: recipients of peritoneal cells from hemin + siRNA injected mice; 2.5 d CDD; mean±SD, n=5-6/group. As for the experimental part:
as §1, with “(E) Pancreata from panels C,D were double stained using antibodies to F4/80 and HO-1 (scale bar=20 μm).” left out
Hemin pretreated peritoneal cell transfer into CDD-fed mice. […] Mice were sacrificed after 2.5 d of CDD feeding, followed by isolation of the pancreata.(for histological and fluorescence staining) and blood. […] The severity of pancreatitis was scored using established histological criteria that assigned individual numerical scores (1=mild, 2=moderate, 3=severe) to edema, inflammation, hemorrhage; and alternate scores for parenchymal necrosis (3=focal, 5=sublobular, and 7=lobular). […]
HO-1 siRNA and hemin pretreated cell transfer. […] After 7 days, peritoneal cells were harvested and analyzed by immunoblotting using antibodies to HO-1/2. […]

d = 2'-deoxy (DNA); r = 2'-OH (RNA)

Consider “HO-1 siRNA: HO-1 siRNA construct #2: 5′-GCCACACAGCACUAUGUAAdTdT-3′ (sense), 5′-UUACAUAGUGCUGUGUGGCdTdT-3′ (antisense) (sense GCCACACAGCACUAUGUAATT; antisense UUACAUAGUGCUGUGUGGCTT; chemistry not fully specified)”, for which the “HO-1 level in peritoneal cells” value with HO-1 was “significant inhibition of HO-1”. In the data set with CDD-induced pancreatitis, the histology score is 12.7±4.5.

For “scrambled: nonspecific siRNA scrambled duplex: 5′-GCGCGCUUUGUAGGAUUCGdTdT-3′ (sense), 5′-CGAAUCCUACAAAGCGCGCdTdT-3′ (antisense) (sense GCGCGCUUUGUAGGAUUCGTT; antisense CGAAUCCUACAAAGCGCGCTT; sugars from the 5' end r19 d2, backbone not given here)”, the histology score in the data set with CDD-induced pancreatitis is reported as 6.4±1.7.

The values above are taken from US7745402B2, “Method of treating pancreatitis” (Lundbeck Inc., priority 2005, dated 2010).
